Laboratory results published in patent US8716292B2, “Riminophenazines with 2-(heteroaryl)amino substituents and their anti-microbial activity” (priority 2010, dated 2014).
≈ marks a conversion by molar mass, not a printed value.

The compounds below were run on Mycobacterium tuberculosis H37Rv strains (assay: In vitro assay for antimicrobial susceptibility (microplate Alamar blue MIC)). Conditions: Mycobacterium tuberculosis, H37RV, 7H9, Alamar blue, inhibition ≧90%; read-out: MIC (μg/mL) against H37Rv.
Type: cell-based

| Structure (SMILES) | MIC |
| --- | --- |
| COC1CCC(/N=c2\cc3n(-c4ccc(F)cc4)c4ccccc4nc-3cc2Nc2ncccc2C#N)CC1 (stereo not shown) [TBI-1082, 5-(4-Fluorophenyl)-3-(4-methoxycyclohexyl)imino-2-(3-cyano-2-pyridyl)amino-3,5-dihydrophenazine] | 0.029 µg/mL (≈ 0.0559 µM) |
| CC(C)/N=c1\cc2n(-c3ccc(OC(F)(F)F)cc3)c3ccccc3nc-2cc1Nc1ncccc1[N+](=O)[O-] [TBI-954, 5-(4-Trifluoromethoxyphenyl)-3-(1-methylethyl)imino-2-(3-nitro-2-pyridyl)amino-3,5-dihydrophenazine] | 0.03 µg/mL (≈ 0.0561 µM) |
| COC1CCC(/N=c2\cc3n(-c4ccc(Cl)cc4)c4ccccc4nc-3cc2Nc2ncccn2)CC1 (stereo not shown) [TBI-1090, 5-(4-Chlorophenyl)-3-(4-methoxycyclohexyl)imino-2-(pyrimidin-2-yl)amino-3,5-dihydrophenazine] | < 0.0075 µg/mL |

Same assay, conditions: Mycobacterium tuberculosis, H37RV, in vitro, Mycobacterium tuberculosis H37Rv strains; read-out: MIC (μg/mL) against H37Rv

| Structure (SMILES) | MIC |
| --- | --- |
| COC1CCC(/N=c2\cc3n(-c4ccc(F)cc4)c4ccccc4nc-3cc2Nc2cccnc2C)CC1 (stereo not shown) [TBI-1013, 5-(4-Fluorophenyl)-3-(4-methoxycyclohexyl)imino-2-(2-methyl-3-pyridyl)amino-3,5-dihydrophenazine] | 0.019 µg/mL (≈ 0.0374 µM) |
| COc1ncccc1Nc1cc2nc3ccccc3n(-c3ccc(OC(F)(F)F)cc3)c-2c/c1=N\C1CC1 [TBI-364, 5-(4-Trifluoromethoxyphenyl)-3-cyclopropylimino-2-(2-methoxy-3-pyridyl)amino-3,5-dihydrophenazine] | 0.015 µg/mL (≈ 0.029 µM) |
| COc1ncccc1Nc1cc2nc3ccccc3n(-c3ccccc3OC(F)(F)F)c-2c/c1=N\C1CCCCC1 [TBI-1047, 5-(2-Trifluoromethoxyphenyl)-3-cyclohexylimino-2-(2-methoxy-3-pyridyl)amino-3,5-dihydrophenazine] | 0.465 µg/mL (≈ 0.831 µM) |
| Clc1ccc(-n2c3c/c(=N\C4CCOCC4)c(Nc4cncc(Br)c4)cc-3nc3ccccc32)cc1 [TBI-880, 5-(4-Chlorophenyl)-3-(4-tetrahydropyranyl)imino-2-(5-bromo-3-pyridyl)amino-3,5-dihydrophenazine] | 0.036 µg/mL (≈ 0.0642 µM) |
| Cc1ccc(-n2c3c/c(=N\C4CCCCC4)c(Nc4cccnc4C)cc-3nc3ccccc32)cc1 [TBI-312, 5-(4-Methylphenyl)-3-cyclohexylimino-2-(2-methyl-3-pyridyl)amino-3,5-dihydrophenazine] | 0.053 µg/mL (≈ 0.112 µM) |
| Cc1ncccc1Nc1cc2nc3ccccc3n(-c3ccc(C(F)(F)F)cc3)c-2c/c1=N\C(C)C [TBI-705, 5-(4-Trifluoromethylphenyl)-3-(1-methylethyl)imino-2-(2-methyl-3-pyridyl)amino-3,5-dihydrophenazine] | 0.014 µg/mL (≈ 0.0287 µM) |
| COC1CCC(/N=c2\cc3n(-c4cccc(OC(F)(F)F)c4)c4ccccc4nc-3cc2Nc2cccnc2)CC1 (stereo not shown) [TBI-1024, 5-(3-Trifluoromethoxyphenyl)-3-(4-methoxycyclohexyl)imino-2-(3-pyridyl)amino-3,5-dihydrophenazine] | 0.112 µg/mL (≈ 0.2 µM) |
| Fc1ccc(-n2c3c/c(=N\C4CC4)c(Nc4cccnc4)cc-3nc3ccccc32)cc1F [TBI-1429, 5-(3,4-Difluorophenyl)-3-cyclopropylimino-2-(3-pyridyl)amino-3,5-dihydrophenazine] | 0.011 µg/mL (≈ 0.025 µM) |
| COc1ncccc1Nc1cc2nc3ccccc3n(-c3ccc(C)cc3)c-2c/c1=N\C1CCN(CC(C)C)CC1 [TBI-314, 5-(4-Methylphenyl)-3-(N-isobutyl-4-piperidyl)imino-2-(2-methoxy-3-pyridyl)amino-3,5-dihydrophenazine] | 0.024 µg/mL (≈ 0.0439 µM) |
| COc1ncccc1Nc1cc2nc3ccccc3n(-c3ccc(C(F)(F)F)cc3)c-2c/c1=N\C1CCCCC1 [TBI-710, 5-(4-Trifluoromethylphenyl)-3-cyclohexylimino-2-(2-methoxy-3-pyridyl)amino-3,5-dihydrophenazine] | 0.03 µg/mL (≈ 0.0552 µM) |
| Cc1ccc(Nc2cc3nc4cc(F)ccc4n(-c4ccc(Cl)c(Cl)c4)c-3c/c2=N\C2CCOCC2)cn1 [TBI-873, 8-Fluoro-5-(3,4-dichlorophenyl)-3-(4-tetrahydropyranyl)imino-2-(6-methyl-3-pyridyl)amino-3,5-dihydrophenazine] | 0.076 µg/mL (≈ 0.139 µM) |
| Cc1ccc(-n2c3c/c(=N\CCN4CCOCC4)c(Nc4cccnc4)cc-3nc3ccccc32)cc1 [TBI-302, 5-(4-Methylphenyl)-3-(2-morpholinoethyl)imino-2-(3-pyridyl)amino-3,5-dihydro-phenazine] | 0.125 µg/mL (≈ 0.255 µM) |
| FC(F)(F)Oc1cccc(-n2c3c/c(=N\C4CCC4)c(Nc4cccnc4)cc-3nc3ccccc32)c1 [TBI-1027, 5-(3-Trifluoromethoxyphenyl)-3-cyclobutylimino-2-(3-pyridyl)amino-3,5-dihydrophenazine] | 0.383 µg/mL (≈ 0.764 µM) |
| Cc1ncccc1Nc1cc2nc3ccccc3n(-c3ccccc3)c-2c/c1=N\C1CCCCC1 [TBI-077, 5-Phenyl-3-cyclohexylimino-2-(2-methyl-3-pyridyl)amino-3,5-dihydrophenazine] | 0.016 µg/mL (≈ 0.0348 µM) |
| Clc1ccc(-n2c3c/c(=N\C4CC4)c(Nc4cccnc4)cc-3nc3ccccc32)cc1Cl [TBI-343, 5-(3,4-Dichlorophenyl)-3-cyclopropylimino-2-(3-pyridyl)amino-3,5-dihydrophenazine] | 0.014 µg/mL (≈ 0.0296 µM) |
| CC(=O)Nc1ccc(Nc2cc3nc4ccccc4n(-c4ccc(C(F)(F)F)cc4)c-3c/c2=N\C2CCOCC2)cn1 [TBI-712, 5-(4-Trifluoromethylphenyl)-3-(4-tetrahydropyranyl)imino-2-(6-acetamino-3-pyridyl)amino-3,5-dihydrophenazine] | 0.158 µg/mL (≈ 0.276 µM) |
| COc1ncccc1Nc1cc2nc3ccc(F)cc3n(-c3ccc(Cl)cc3)c-2c/c1=N\C1CCC(OC)CC1 (stereo not shown) [TBI-924] | 0.06 µg/mL (≈ 0.108 µM) |
| COc1ncccc1Nc1cc2nc3ccccc3n(-c3cccc(OC(F)(F)F)c3)c-2c/c1=N\C1CCCCC1 [TBI-1040, 5-(3-Trifluoromethoxyphenyl)-3-cyclohexylimino-2-(2-methoxy-3-pyridyl)amino-3,5-dihydrophenazine] | 0.086 µg/mL (≈ 0.154 µM) |
| Cc1ncccc1Nc1cc2nc3ccccc3n(-c3ccc(F)cc3)c-2c/c1=N\C1CCCCC1 [TBI-1023, 5-(4-Fluorophenyl)-3-cyclohexylimino-2-(2-methyl-3-pyridyl)amino-3,5-dihydrophenazine] | 0.0075 µg/mL (≈ 0.0157 µM) |
| Cc1ccc(Nc2cc3nc4ccccc4n(-c4ccccc4)c-3c/c2=N\C2CCC2)cn1 [TBI-506, 5-Phenyl-3-cyclobutylimino-2-(6-methyl-3-pyridyl)amino-3,5-dihydrophenazine] | 0.05 µg/mL (≈ 0.116 µM) |
| Clc1ccc(-n2c3c/c(=N\C4CCCCC4)c(Nc4cccnc4)cc-3nc3ccccc32)cc1Cl [TBI-350, 5-(3,4-Dichlorophenyl)-3-cyclohexylimino-2-(3-pyridyl)amino-3,5-dihydrophenazine] | 0.031 µg/mL (≈ 0.0603 µM) |
| COc1ncccc1Nc1cc2nc3ccccc3n(-c3cccc(F)c3)c-2c/c1=N\C(C)C [TBI-523] | 0.06 µg/mL (≈ 0.132 µM) |
| COc1ncccc1Nc1cc2nc3ccccc3n(-c3ccc(Br)cc3)c-2c/c1=N\C1CCCCC1 [TBI-517, 5-(4-Bromophenyl)-3-cyclohexylimino-2-(2-methoxy-3-pyridyl)amino-3,5-dihydrophenazine] | 0.029 µg/mL (≈ 0.0523 µM) |
| COc1ncccc1Nc1cc2nc3ccccc3n(-c3ccc(C(F)(F)F)cc3)c-2c/c1=N\C1CCC1 [TBI-728, 5-(4-Trifluoromethylphenyl)-3-cyclobutylimino-2-(2-methoxy-3-pyridyl)amino-3,5-dihydrophenazine] | 0.033 µg/mL (≈ 0.064 µM) |
| Cc1ccc(Nc2cc3nc4ccccc4n(-c4ccc(F)cc4)c-3c/c2=N\C(C)C)cn1 [TBI-692, 5-(4-Fluorophenyl)-3-(1-methylethyl)imino-2-(6-methyl-3-pyridyl)amino-3,5-dihydrophenazine] | 0.06 µg/mL (≈ 0.137 µM) |
